# Measured values reported in patent US4229204A, “Trifluoromethylphenyl isoxazolyl benzoates” (Monsanto Company, priority 1978, dated 1980).
# What was measured:
# Assay type in all cases: in vivo
# [1] = system: Cocklebur; assay: Pre-emergent herbicidal test; settings: 4 WAT; note: ranges in brackets are in %
# Protocol: (§1) The pre-emergent test was conducted as follows:
# (§2) A good grade of top soil was placed in aluminum pans and compacted to a depth of three-eighths to one-half inch from the top of the pan. On the top of the soil was placed a predetermined number of seeds or vegetative propagules of various plant species which were pressed into the soil surface. The soil required to level fill the pans after seeding or adding vegetative propagules was weighed into a pan. A known amount of the active ingredient applied in a solvent or as a wettable powder and the soil were thoroughly mixed, and used as a cover layer for prepared pans.
# (§3) The herbicidal rating was obtained by means of a fixed scale based on the percent injury of each plant species. The ratings are defined as follows: […]
# (§4) The compounds were also tested by utilizing the above procedure on the following plant species: […]
# [2] = system: Morningglory; assay: Pre-emergent herbicidal test; settings: 4 WAT; note: ranges in brackets are in %
# Protocol: as §1, §2, §3, §4
# [3] = system: Lambsquarters; assay: Pre-emergent herbicidal test; settings: 4 WAT; note: ranges in brackets are in %
# Protocol: as §1, §2, §3, §4
# [4] = system: Downy Brome; assay: Pre-emergent herbicidal test; settings: 4 WAT; note: ranges in brackets are in %
# Protocol: as §1, §2, §3, §4
# [5] = system: Canada Thistle; assay: Pre-emergent herbicidal test; settings: 4 WAT, 11.2 kg/h; note: ranges in brackets are in %
# Protocol: as §1, §2, §3, §4
# [6] = system: Smartweed; assay: Pre-emergent herbicidal test; settings: 4 WAT; note: ranges in brackets are in %
# Protocol: as §1, §2, §3, §4
# [7] = system: Barnyardgrass; assay: Pre-emergent herbicidal test; settings: 4 WAT; note: ranges in brackets are in %
# Protocol: as §1, §2, §3, §4
# [8] = system: Yellow Nutsedge; assay: Pre-emergent herbicidal test; settings: 4 WAT, 11.2 kg/h; note: ranges in brackets are in %
# Protocol: as §1, §2, §3, §4
# [9] = system: Velvetleaf; assay: Pre-emergent herbicidal test; settings: 4 WAT; note: ranges in brackets are in %
# Protocol: as §1, §2, §3, §4
# [10] = system: Johnsongrass; assay: Pre-emergent herbicidal test; settings: 4 WAT, 11.2 kg/h; note: ranges in brackets are in %
# Protocol: as §1, §2, §3, §4
# [11] = system: Quackgrass; assay: Pre-emergent herbicidal test; settings: 4 WAT, 11.2 kg/h; note: ranges in brackets are in %
# Protocol: as §1, §2, §3, §4
# [12] = system: corn; assay: Growth regulation of corn (dipping); settings: 1330 ppm
# [13] = system: Hemp Sesbania; assay: Pre-emergent herbicidal test; settings: 4 WAT; note: ranges in brackets are in %
# Protocol: as §1, §2, §3
# [14] = system: Wild Buckwheat; assay: Pre-emergent herbicidal test; settings: 4 WAT; note: ranges in brackets are in %
# Protocol: as §1, §2, §3
# [15] = system: Sorghum; assay: Pre-emergent herbicidal test; settings: 4 WAT; note: ranges in brackets are in %
# Protocol: as §1, §2, §3
# [16] = system: Sugarbeet; assay: Pre-emergent herbicidal test; settings: 4 WAT; note: ranges in brackets are in %
# Protocol: as §1, §2, §3
# [17] = system: Crabgrass; assay: Pre-emergent herbicidal test; settings: 4 WAT; note: ranges in brackets are in %
# Protocol: as §1, §2, §3
# [18] = system: Soybean; assay: Pre-emergent herbicidal test; settings: 4 WAT; note: ranges in brackets are in %
# Protocol: as §1, §2, §3
# [19] = system: Rice; assay: Pre-emergent herbicidal test; settings: 4 WAT; note: ranges in brackets are in %
# Protocol: as §1, §2, §3
# [20] = system: Panicum Spp.; assay: Pre-emergent herbicidal test; settings: 4 WAT; note: ranges in brackets are in %
# Protocol: as §1, §2, §3
# [21] = system: Wheat; assay: Pre-emergent herbicidal test; settings: 4 WAT; note: ranges in brackets are in %
# Protocol: as §1, §2, §3
# [22] = system: Cocklebur; assay: Post-emergent herbicidal test; settings: 4 WAT; note: ranges in brackets are in %
# Protocol: (§5) The post-emergent tests were conducted as follows:
# (§6) The active ingredients are applied in spray form to two or three week old specimens of various plant species. The spray, a solution or wettable powder suspension containing the appropriate rate of active ingredient to give the desired test rate and a surfactant, is applied to the plants.
# as §4
# [23] = system: Morningglory; assay: Post-emergent herbicidal test; settings: 4 WAT; note: ranges in brackets are in %
# Protocol: as §5, §6, §4
# [24] = system: Lambsquarters; assay: Post-emergent herbicidal test; settings: 4 WAT; note: ranges in brackets are in %
# Protocol: as §5, §6, §4
# [25] = system: Downy Brome; assay: Post-emergent herbicidal test; settings: 4 WAT; note: ranges in brackets are in %
# Protocol: as §5, §6, §4
# [26] = system: Canada Thistle; assay: Post-emergent herbicidal test; settings: 4 WAT, 11.2 kg/h; note: ranges in brackets are in %
# Protocol: as §5, §6, §4
# [27] = system: Smartweed; assay: Post-emergent herbicidal test; settings: 4 WAT; note: ranges in brackets are in %
# Protocol: as §5, §6, §4
# [28] = system: Barnyardgrass; assay: Post-emergent herbicidal test; settings: 4 WAT; note: ranges in brackets are in %
# Protocol: as §5, §6, §4
# [29] = system: Yellow Nutsedge; assay: Post-emergent herbicidal test; settings: 4 WAT, 11.2 kg/h; note: ranges in brackets are in %
# Protocol: as §5, §6, §4
# [30] = system: Velvetleaf; assay: Post-emergent herbicidal test; settings: 4 WAT; note: ranges in brackets are in %
# Protocol: as §5, §6, §4
# [31] = system: Johnsongrass; assay: Post-emergent herbicidal test; settings: 4 WAT, 11.2 kg/h; note: ranges in brackets are in %
# Protocol: as §5, §6, §4
# [32] = system: Quackgrass; assay: Post-emergent herbicidal test; settings: 4 WAT, 11.2 kg/h; note: ranges in brackets are in %
# Protocol: as §5, §6, §4
# [33] = system: Hemp Sesbania; assay: Post-emergent herbicidal test; settings: 4 WAT; note: ranges in brackets are in %
# Protocol: as §5, §6
# [34] = system: Wild Buckwheat; assay: Post-emergent herbicidal test; settings: 4 WAT; note: ranges in brackets are in %
# Protocol: as §5, §6
# [35] = system: Sorghum; assay: Post-emergent herbicidal test; settings: 4 WAT; note: ranges in brackets are in %
# Protocol: as §5, §6
# [36] = system: Sugarbeet; assay: Post-emergent herbicidal test; settings: 4 WAT; note: ranges in brackets are in %
# Protocol: as §5, §6
# [37] = system: Crabgrass; assay: Post-emergent herbicidal test; settings: 4 WAT; note: ranges in brackets are in %
# Protocol: as §5, §6
# [38] = system: Soybean; assay: Post-emergent herbicidal test; settings: 4 WAT; note: ranges in brackets are in %
# Protocol: as §5, §6
# [39] = system: Rice; assay: Post-emergent herbicidal test; settings: 4 WAT; note: ranges in brackets are in %
# Protocol: as §5, §6
# [40] = system: Panicum Spp.; assay: Post-emergent herbicidal test; settings: 4 WAT; note: ranges in brackets are in %
# Protocol: as §5, §6
# [41] = system: Wheat; assay: Post-emergent herbicidal test; settings: 4 WAT; note: ranges in brackets are in %
# Protocol: as §5, §6
substance,measurement,setting,value
Ethyl 2-[3-[3-(Trifluoromethyl)Phenyl]-5-Isoxazolyl]Benzoate [Example 4],herbicidal rating,[1]; 1.12 kg/h,0 (0-24)
same,herbicidal rating,[1]; 5.60 kg/h,1 (25-49)
same,herbicidal rating,[1]; 11.2 kg/h,1 (25-49)
same,herbicidal rating,[2]; 1.12 kg/h,2 (50-74)
same,herbicidal rating,[2]; 5.60 kg/h,3 (75-100)
same,herbicidal rating,[2]; 11.2 kg/h,2 (50-74)
same,herbicidal rating,[3]; 1.12 kg/h,3 (75-100)
same,herbicidal rating,[3]; 5.60 kg/h,2 (50-74)
same,herbicidal rating,[3]; 11.2 kg/h,2 (50-74)
same,herbicidal rating,[4]; 1.12 kg/h,1 (25-49)
same,herbicidal rating,[4]; 5.60 kg/h,2 (50-74)
same,herbicidal rating,[4]; 11.2 kg/h,2 (50-74)
same,herbicidal rating,[5],2 (50-74)
same,herbicidal rating,[6]; 1.12 kg/h,3 (75-100)
same,herbicidal rating,[6]; 5.60 kg/h,3 (75-100)
same,herbicidal rating,[6]; 11.2 kg/h,2 (50-74)
same,herbicidal rating,[7]; 1.12 kg/h,3 (75-100)
same,herbicidal rating,[7]; 5.60 kg/h,3 (75-100)
same,herbicidal rating,[7]; 11.2 kg/h,3 (75-100)
same,herbicidal rating,[8],0 (0-24)
same,herbicidal rating,[9]; 1.12 kg/h,0 (0-24)
same,herbicidal rating,[9]; 5.60 kg/h,1 (25-49)
same,herbicidal rating,[9]; 11.2 kg/h,2 (50-74)
same,herbicidal rating,[10],0 (0-24)
same,herbicidal rating,[11],2 (50-74)
same,Observations,[12],"reduction in stature and ""buggy whipping"" of the leaves"
same,herbicidal rating,[13]; 1.12 kg/h,1 (25-49)
same,herbicidal rating,[13]; 5.60 kg/h,2 (50-74)
same,herbicidal rating,[14]; 1.12 kg/h,2 (50-74)
same,herbicidal rating,[14]; 5.60 kg/h,2 (50-74)
same,herbicidal rating,[15]; 1.12 kg/h,2 (50-74)
same,herbicidal rating,[15]; 5.60 kg/h,3 (75-100)
same,herbicidal rating,[16]; 1.12 kg/h,1 (25-49)
same,herbicidal rating,[16]; 5.60 kg/h,2 (50-74)
same,herbicidal rating,[17]; 1.12 kg/h,1 (25-49)
same,herbicidal rating,[17]; 5.60 kg/h,3 (75-100)
same,herbicidal rating,[18]; 1.12 kg/h,1 (25-49)
same,herbicidal rating,[18]; 5.60 kg/h,3 (75-100)
same,herbicidal rating,[19]; 1.12 kg/h,3 (75-100)
same,herbicidal rating,[19]; 5.60 kg/h,3 (75-100)
same,herbicidal rating,[20]; 1.12 kg/h,2 (50-74)
same,herbicidal rating,[20]; 5.60 kg/h,3 (75-100)
same,herbicidal rating,[21]; 1.12 kg/h,0 (0-24)
same,herbicidal rating,[21]; 5.60 kg/h,1 (25-49)
same,herbicidal rating,[22]; 1.12 kg/h,2 (50-74)
same,herbicidal rating,[22]; 5.60 kg/h,2 (50-74)
same,herbicidal rating,[22]; 11.2 kg/h,1 (25-49)
same,herbicidal rating,[23]; 1.12 kg/h,2 (50-74)
same,herbicidal rating,[23]; 5.60 kg/h,2 (50-74)
same,herbicidal rating,[23]; 11.2 kg/h,2 (50-74)
same,herbicidal rating,[24]; 1.12 kg/h,1 (25-49)
same,herbicidal rating,[24]; 5.60 kg/h,2 (50-74)
same,herbicidal rating,[24]; 11.2 kg/h,3 (75-99)
same,herbicidal rating,[25]; 1.12 kg/h,0 (0-24)
same,herbicidal rating,[25]; 5.60 kg/h,0 (0-24)
same,herbicidal rating,[25]; 11.2 kg/h,0 (0-24)
same,herbicidal rating,[26],2 (50-74)
same,herbicidal rating,[27]; 1.12 kg/h,2 (50-74)
same,herbicidal rating,[27]; 5.60 kg/h,4 (100)
same,herbicidal rating,[27]; 11.2 kg/h,2 (50-74)
same,herbicidal rating,[28]; 1.12 kg/h,2 (50-74)
same,herbicidal rating,[28]; 5.60 kg/h,3 (75-99)
same,herbicidal rating,[28]; 11.2 kg/h,3 (75-99)
same,herbicidal rating,[29],1 (25-49)
same,herbicidal rating,[30]; 1.12 kg/h,2 (50-74)
same,herbicidal rating,[30]; 5.60 kg/h,1 (25-49)
same,herbicidal rating,[30]; 11.2 kg/h,2 (50-74)
same,herbicidal rating,[31],1 (25-49)
same,herbicidal rating,[32],1 (25-49)
same,herbicidal rating,[33]; 1.12 kg/h,2 (50-74)
same,herbicidal rating,[33]; 5.60 kg/h,2 (50-74)
same,herbicidal rating,[34]; 1.12 kg/h,2 (50-74)
same,herbicidal rating,[34]; 5.60 kg/h,2 (50-74)
same,herbicidal rating,[35]; 1.12 kg/h,1 (25-49)
same,herbicidal rating,[35]; 5.60 kg/h,2 (50-74)
same,herbicidal rating,[36]; 1.12 kg/h,1 (25-49)
same,herbicidal rating,[36]; 5.60 kg/h,2 (50-74)
same,herbicidal rating,[37]; 1.12 kg/h,1 (25-49)
same,herbicidal rating,[37]; 5.60 kg/h,2 (50-74)
same,herbicidal rating,[38]; 1.12 kg/h,2 (50-74)
same,herbicidal rating,[38]; 5.60 kg/h,2 (50-74)
same,herbicidal rating,[39]; 1.12 kg/h,1 (25-49)
same,herbicidal rating,[39]; 5.60 kg/h,1 (25-49)
same,herbicidal rating,[40]; 1.12 kg/h,0 (0-24)
same,herbicidal rating,[40]; 5.60 kg/h,1 (25-49)
same,herbicidal rating,[41]; 1.12 kg/h,0 (0-24)
same,herbicidal rating,[41]; 5.60 kg/h,1 (25-49)
